Measured values reported in patent US8906897B2, “Antimicrobial agents based on hemin derivatives” (Obschestvo S Ogranichennoi Otvetstvennostiyu …, priority 2009, dated 2014).
Entries after “also recorded” stand apart in the source; their conditions may differ.

Experiments:
[1] = tested on: Enterococcus faecalis No. 559; test: Specific activity against resistant bacterial strains; format: cell-based; details: Ent. faecalis 559; 24 h, 36° C.
Method: (§1) The tested agents were water-soluble hemin derivatives (compounds VII and XVIII) or DMSO-soluble derivatives (compounds VIII, XV, and XIV). Vancomycin was the reference compound. Each compound was tested in three replicas.
(§2) Sterile single-use flat-bottomed 96-well plates, Petri dishes, pipettes, tips, and test tubes (Pan-Eco, Moscow) were used in the study.
(§3) The nutritional media used were as follows. A working Mueller Hinton broth was prepared from dry media (Mueller Hinton broth, Acumedia, Baltimore) and sterilized by autoclaving at 121° C. for 15 min.
(§4) Staphylococcus aureus was cultured on the Tripticase Soy Agar (BBL) commercially available dry medium. Enterococcus faecalis was cultured on the Columbia Agar Base (BBL) commercially available dry medium. These media were sterilized by autoclaving at 121° C. for 15 min.
(§5) Bacterial inoculum was fixed and equal to 5×10^5 CFU/mL.
(§6) For water-soluble compounds, wells from 2nd through 8th were added with the solvent (water) in an amount of 15 μL per well, then the 1st well was added with 30 μL of the stock solution of the tested compound in water with a concentration of 1×10^3M, and the concentration was adjusted to 0.007×10^3 M by serial twofold dilutions. A 10-μL portion was taken from every well, and 190 μL of the bacterial culture (10^5 CFU) was added per well.
(§7) For DMSO-soluble compounds, wells from 2nd through 8th were added with the solvent (DMSO) in an amount of 10 μL per well, then the 1st well was added with 20 μL of the stock solution of the tested compound in […] with a concentration of 5×10^3M, and the concentration was adjusted to 0.039×10^3 M by serial twofold dilutions. A 2-μL portion was taken from each well, and 198 μL of the bacterial culture (10^5 CFU) was added per well.
(§8) The control comprised wells free of tested compounds (culture growth control). In addition, purity control of nutritional media and solvents was used. Plates were incubated in a thermostat at 36° C. for 24 hours.
(§9) Culture growth was evaluated visually by comparison of how microorganisms grew in the presence of tested compounds and in the absence of them. MSC (the minimal suppressing concentration) was set equal to the last dilution of a tested agent which suppressed bacterial culture growth.

[2] = tested on: Staphylococcus aureus No. 100 KC; test: as above; format: cell-based; details: St. aureus 100 KC; 24 h, 36° C.
Method: as §1, §2, §3, §4, §5, §6, §7, §8, §9

[3] = tested on: Staphylococcus aureus No. 25923 ATCC; test: as above; format: cell-based; details: St. aureus 25923; 24 h, 36° C.
Method: as §1, §2, §3, §4, §5, §6, §7, §8, §9

[4] = tested on: Staphylococcus epidermidis No. 533; test: as above; format: cell-based; details: St. epiderm 533; 24 h, 36° C.
Method: as §1, §2, §3, §4, §5, §6, §7, §8, §9

[5] = Solubility of tested agents (water / DMSO); details: water or DMSO
[6] = tested on: Cryptococcus neoformans No. 3465; test: Antifungal activity, culture growth with pH indicator; format: cell-based; set-up: key: (−) No growth; the indicator is blue; (±) Weak growth; the indicator is yellow, but the precipitate of grown cells looks as a diffuse spot; (+) Strong growth; the indicator is yellow, and the cell precipitate looks as a compact spot
Method: The subjects of action were Cryptococcus neoformans No. 3465 museum strain cells and Candida albicans No. 927 museum strain cells grown for one day on a glucose-peptone-yeast medium at 32° C. The reference compounds were the following antimycotics: pimafucin, amphotericin, and fluconazole.
Experiments were carried out on round-bottomed 96-well plates (Lenmedpolimer) in two replicas. To the first column (0), added was 10 μL of the stock solution of a water-soluble agent with concentrations of 10^−2 to 10^−3 mol/L; to the second column, added was also the same 10 μL plus 10 μL of the solvent corresponding to the given compound, suspended, 10 μL was transferred to the next well, and so on to the 8th well of the row. Stock solutions of water-insoluble compounds of general formula (I) (compounds V, VIII, XII, XIII, XIV, and hemin) were prepared in DMSO and were diluted with DMSO and the medium. DMSO concentrations in the reaction mixture in a well were ≦5%.
Then, to every well added was 190 μL of a Cr. neoformans cell culture suspension in a synthetic nutritional medium (so that the final cell concentration was approximately 10^3 CFU/mL), this medium containing Bromocresol Blue as a pH-indicator (pH: 5.5; indicator color: blue). As pH reduced to 4.5, the indicator in the culture changed its color to yellow, thereby indicating fungal cell growth. The synthetic medium comprised the following components: salts, amino acids, microelements, vitamins, an antibiotic, and glucose (30 components altogether) [Yarrow, D., “Methods for the Isolation, Maintenance and Identification of Yeasts,” in: The Yeasts. A Taxonomic Study, Ed. by Kurtsman, C. P, and Fell, M., Elsevier, 1998, pp. 77-100]. After being inoculated with a Cr. neoformans cell suspension, the plate was incubated at 32° C. for 1 h with stirring, then transferred to a stationary thermostat and incubated for two and five days at 27° C. After being inoculated with a C. albicans cell suspension, the plates were incubated for 1 h at 32° C. with stirring, then transferred to a stationary thermostat and incubated for one and four days at 27° C.

[7] = dilution : 16 of 5.00 × 10^−5 M
[8] = dilution : 32 of 5.00 × 10^−5 M
[9] = dilution : 64 of 5.00 × 10^−5 M
[10] = dilution : 128 of 5.00 × 10^−5 M

Compound	MICs for hemin derivatives against Gr+ strains [1]	MICs for hemin derivatives against Gr+ strains [2]	MICs for hemin derivatives against Gr+ strains [3]	MICs for hemin derivatives against Gr+ strains [4]	solubility (in words) [5]	Test culture growth at various dilutions of the agent on day 2 ([6]; dilution 0: 5.00 × 10^−5 M)	Test culture growth at various dilutions of the agent on day 2 ([6]; dilution : 2 of 5.00 × 10^−5 M)	Test culture growth at various dilutions of the agent on day 2 ([6]; dilution : 4 of 5.00 × 10^−5 M)	Test culture growth at various dilutions of the agent on day 2 ([6]; dilution : 8 of 5.00 × 10^−5 M)	Test culture growth at various dilutions of the agent on day 2 [6, 7]	Test culture growth at various dilutions of the agent on day 2 [6, 8]	Test culture growth at various dilutions of the agent on day 2 [6, 9]	Test culture growth at various dilutions of the agent on day 2 [6, 10]
C=CC1=C(C)c2cc3[n-]c(cc4nc(cc5[n-]c(cc1n2)c(C)c5CCC(=O)NCCO)C(CCC(=O)NCCO)=C4C)c(C)c3C=C.[Cl-].[Fe+3] [Compound XIV, Protohemin IX 6,7-bis-N-(2-Hydroxyethyl)amide]	6.25 µM	>50 µM	5.21e-06 M	5.21 µM	DMSO-soluble; also recorded: water-insoluble								
C=CC1=C(C)c2cc3[n-]c(cc4nc(cc5[n-]c(cc1n2)c(C)c5CCC(=O)N[C@@H](CCC(=O)N[C@@H](CCCNC(=N)N)C(=O)OC)C(=O)N[C@@H](CCCNC(=N)N)C(=O)OC)C(CCC(=O)N[C@@H](CCC(=O)N[C@@H](CCCNC(=N)N)C(=O)OC)C(=O)N[C@@H](CCCNC(=N)N)C(=O)OC)=C4C)c(C)c3C=C.[Cl-].[Fe+3] [Compound XVIII, 6,7-bis[bis(N^α-L-Arginyl Methyl Ester)-L-Glutamyl]-Protohemin IX]	0.78 µM	1.56 µM	7.8e-07 M	0.78 µM	water-soluble	−	−	−	−	+	+	+	+
C=CC1=C(C)c2cc3[n-]c(cc4[n-]c(cc5nc(cc1n2)C(C)=C5C=C)c(C)c4CCC(=O)O)c(CCC(=O)O)c3C.[Cl-].[Fe+3] [Hem, hemin]	>10 µM	>10 µM	>1e-05 M	>10 µM	water-insoluble	±	±	±	±	±	±	+	+
C=CC1=C(C)c2cc3[n-]c(cc4nc(cc5[n-]c(cc1n2)c(C)c5CCC(=O)N[C@@H](CO)C(=O)OC)C(CCC(=O)N[C@@H](CO)C(=O)OC)=C4C)c(C)c3C=C.[Cl-].[Fe+3] [VIII]	3.12 µM	6.25 µM	2.6e-06 M	5.21 µM	DMSO-soluble; also recorded: water-insoluble	±	±	±	+	+	+	+	+
C=CC1=C(C)c2cc3[n-]c(cc4nc(cc5[n-]c(cc1n2)c(C)c5CCC(=O)N[C@@H](CCCNC(=N)N)C(=O)OC)C(CCC(=O)N[C@@H](CCCNC(=N)N)C(=O)OC)=C4C)c(C)c3C=C.[Cl-].[Fe+3] [VII]	25 µM	50 µM	2.5. ×10^−5 M	25 µM	water-soluble	−	±	+	+	+	+	+	+
